Laboratory results taken from patent US20130209522A1, “Drug Release from a Polymer-Controlled Local Antibiotic Delivery System Using a Degradable Bone Graft” (UNIVERSITY OF UTAH RESEARCH FOUNDATION, priority 2012, published 2013).
Counter-ions that a name gives are not always drawn. Like-named read-outs stand apart in the source and are kept apart here.

Legend:
[1] = cited from earlier work; for Solubility: ranking of solvents, Table 2; for Solubility in organic solvents / Water solubility / pH induced in the surrounding: Table 3, for reference; for Solubility in organic solvents: cell wraps over several lines, first line given
[2] = tested on: Staphylococcus aureus (ATCC 25923); test: Zone of inhibition of antibiotic release samples; format: cell-based; settings: released from PCL-coated allograft bone
Experimental: Zone of Inhibition. Immediately following the kinetics assay, filter paper disks (diameter=6 mm) were placed in the antibiotic release samples in the 96-well plate and dried overnight. Staphylococcus aureus (ATCC 25923 from American Type Culture Collection, Manassas, Va., USA) streaked Brain-Heart Infusion (BHI, BD cat#237500) agar plates were prepared for zone of inhibition experiments using pooled isolated colonies from blood agar plates diluted to a standard concentration (0.5 McFarland units). Subsequently, each drug-containing disk was placed on the bacterial-streaked agar […]. Plates were incubated for 18 hours at 37° C. Electronic calipers were used to measure the cleared (no bacterial growth) diameter surrounding each disk (zone of inhibition). If no measurable zone was present the diameter was recorded as zero.

[3] = Tobramycin thermostability during PCL formulation (bioactivity); format: physicochemical; settings: after inclusion in a PCL formulation; data not shown

Molecule: Tobramycin Sulfate
- Solubility [1]: water >>> acetone >> ethanol

Molecule: CO[C@H]1/C=C/O[C@@]2(C)Oc3c(C)c(O)c4c(O)c(c(/C=N/N5CCN(C)CC5)c(O)c4c3C2=O)NC(=O)/C(C)=C\C=C\[C@H](C)[C@H](O)[C@@H](C)[C@@H](O)[C@@H](C)[C@H](OC(C)=O)[C@@H]1C [Rifampin]
- Solubility in organic solvents [1]: DMSO, CHCl3,
- zones of inhibition compared to the antibiotic salts (vancomycin and oxacillin) [2]: enhanced zones of inhibition

Molecule: NC[C@H]1O[C@H](O[C@H]2[C@H](O)[C@@H](O[C@H]3O[C@H](CO)[C@@H](O)[C@H](N)[C@H]3O)[C@H](N)C[C@@H]2N)[C@H](N)C[C@@H]1O [Tobramycin]
- thermostability during formulation [3]: no loss in bioactivity
- Solubility in organic solvents [1]: EtOH
- Water solubility [1]: (538 mg/ml
- pH induced in the surrounding [1]: Low
- solubility in alcohols ([1]; in words): marginally soluble
- solubility in water ([1]; in words): very water-soluble
- solubility in water ([1]; in words, listed as tobramycin): highly soluble

Molecule: O=C(O)c1cn(C2CC2)c2cc(N3CCNCC3)c(F)cc2c1=O [Ciprofloxacin]
- zones of inhibition compared to the antibiotic salts (vancomycin and oxacillin) [2]: enhanced zones of inhibition

Molecule: Cc1onc(-c2ccccc2)c1C(=O)N[C@@H]1C(=O)N2[C@@H]1SC(C)(C)[C@@H]2C(=O)O [Oxacillin]
- Solubility in organic solvents [1]: High: MeOH,
- Water solubility [1]: (13.9 mg/ml
- pH induced in the surrounding [1]: High

Molecule: CN[C@H](CC(C)C)C(=O)N[C@H]1C(=O)N[C@@H](CC(N)=O)C(=O)N[C@H]2C(=O)N[C@H]3C(=O)N[C@H](C(=O)N[C@H](C(=O)O)c4cc(O)cc(O)c4-c4cc3ccc4O)[C@H](O)c3ccc(c(Cl)c3)Oc3cc2cc(c3O[C@@H]2O[C@H](CO)[C@@H](O)[C@H](O)[C@H]2O[C@H]2C[C@](C)(N)[C@H](O)[C@H](C)O2)Oc2ccc(cc2Cl)[C@H]1O [Vancomycin HCL]
- Solubility [1]: water >>> chloroform & ethanol

Molecule: CN[C@H](CC(C)C)C(=O)N[C@H]1C(=O)N[C@@H](CC(N)=O)C(=O)N[C@H]2C(=O)N[C@H]3C(=O)N[C@H](C(=O)N[C@H](C(=O)O)c4cc(O)cc(O)c4-c4cc3ccc4O)[C@H](O)c3ccc(c(Cl)c3)Oc3cc2cc(c3O[C@@H]2O[C@H](CO)[C@@H](O)[C@H](O)[C@H]2O[C@H]2C[C@](C)(N)[C@H](O)[C@H](C)O2)Oc2ccc(cc2Cl)[C@H]1O [Vancomycin]
- Solubility in organic solvents [1]: DMSO
